IC50 data for 24 molecules are collected here from patent publication US20250144094A1 (Erasca, Inc., priority 2021, published 2025).

For orientation: IC50 means the concentration that gives 50% inhibition.

This test deals with Recombinant human ULK1 (1-649) (Homo sapiens (Human), UniProt O75385). Kind of test: ULK1 ADP Glo kinase activity assay (MBP substrate). The settings on record: 25° C., 40 minutes, read-out: ULK1 biochemical IC50. The essentials:
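GST-tagged ULK1 (1-649) from Sf9 cells phosphorylated MBP, with ATP, for 40 min at 25 °C across a 12-point series from 10 uM. ADP formed was quantified by ADP-Glo luminescence against DMSO controls. IC50 came from a four-parameter variable-slope fit of log concentration.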

Recombinant human ULK1 (1-649), sequence (O75385 1-649): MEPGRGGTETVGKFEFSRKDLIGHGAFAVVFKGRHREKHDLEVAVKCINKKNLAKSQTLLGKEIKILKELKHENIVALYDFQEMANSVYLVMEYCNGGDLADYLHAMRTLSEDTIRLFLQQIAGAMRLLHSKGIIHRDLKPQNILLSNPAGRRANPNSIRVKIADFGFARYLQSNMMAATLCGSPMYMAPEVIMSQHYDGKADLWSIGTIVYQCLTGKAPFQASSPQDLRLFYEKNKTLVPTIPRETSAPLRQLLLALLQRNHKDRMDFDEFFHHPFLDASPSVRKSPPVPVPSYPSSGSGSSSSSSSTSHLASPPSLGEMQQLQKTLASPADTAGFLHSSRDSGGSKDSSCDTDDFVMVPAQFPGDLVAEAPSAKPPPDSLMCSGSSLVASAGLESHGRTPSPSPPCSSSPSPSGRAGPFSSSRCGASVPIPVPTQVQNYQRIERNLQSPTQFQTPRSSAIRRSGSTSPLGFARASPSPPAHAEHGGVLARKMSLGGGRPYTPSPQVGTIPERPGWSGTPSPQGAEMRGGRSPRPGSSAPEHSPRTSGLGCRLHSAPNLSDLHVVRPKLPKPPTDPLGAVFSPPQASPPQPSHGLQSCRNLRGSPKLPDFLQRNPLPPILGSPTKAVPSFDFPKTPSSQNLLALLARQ

Take `CN1CCc2cc(F)c(Nc3ncc(C(F)(F)F)c(-c4cc(S(C)(=O)=O)cs4)n3)cc2C1` [Example 111, 6-fluoro-2-methyl-N-[4-(4-methylsulfonyl-2-thienyl)-5-(trifluoromethyl)pyrimidin-2-yl]-3,4-dihydro-1H-isoquinolin-7-amine]: the IC50 was at most 10 nM.

On to `CS(=O)(=O)c1csc(-c2nc(Nc3cc4c(cc3Cl)CN(C3CC3)C4)ncc2C(F)(F)F)c1` [Example 113, 6-chloro-2-cyclopropyl-N-[4-(4-methylsulfonyl-2-thienyl)-5-(trifluoromethyl)pyrimidin-2-yl]isoindolin-5-amine], for which the IC50 is 10 to 50 nM. As to `CS(=O)(=O)c1csc(-c2nc(Nc3cc4c(cc3F)CN(C3CC3)C4)ncc2C(F)(F)F)c1` [Example 114, 2-cyclopropyl-6-fluoro-N-[4-(4-methylsulfonyl-2-thienyl)-5-(trifluoromethyl)pyrimidin-2-yl]isoindolin-5-amine], the half-maximal inhibitory concentration (IC50) lay in the range of 10 to 50 nM. Turning to `CN1CCc2cc(Nc3ncc(C(F)(F)F)c(-c4cc(S(C)(=O)=O)cs4)n3)c(C3CC3)cc2C1` [Example 115, 7-cyclopropyl-2-methyl-N-[4-(4-methylsulfonyl-2-thienyl)-5-(trifluoromethyl)pyrimidin-2-yl]-3,4-dihydro-1H-isoquinolin-6-amine], the 50% inhibitory concentration (IC50) is at most 10 nM. Turning to `CN1CCc2cc(Nc3ncc(C(F)(F)F)c(-c4cc5c(s4)C(=O)N(C)CCS5(=O)=O)n3)c(Cl)cc2C1` [Example 116, 7-[2-[(7-chloro-2-methyl-3,4-dihydro-1H-isoquinolin-6-yl)amino]-5-(trifluoromethyl)pyrimidin-4-yl]-4-methyl-1,1-dioxo-2,3-dihydrothieno[2,3-f][1,4]thiazepin-5-one], the IC50 is at most 10 nM.

In the case of `O=S1(=O)CCNCc2sc(-c3nc(Nc4cc5c(cc4Cl)CN(C4CC4)CC5)ncc3C(F)(F)F)cc21` [Example 117, 7-chloro-2-cyclopropyl-N-[4-(1,1-dioxo-2,3,4,5-tetrahydrothieno[2,3-f][1,4]thiazepin-7-yl)-5-(trifluoromethyl)pyrimidin-2-yl]-3,4-dihydro-1H-isoquinolin-6-amine], the IC50 is at most 10 nM. With `CS(=O)(=O)c1csc(-c2nc(Nc3cc4c(cc3F)CN(C3CC3)CC4)ncc2C(F)(F)F)c1` [Example 118, 2-cyclopropyl-7-fluoro-N-[4-(4-methylsulfonyl-2-thienyl)-5-(trifluoromethyl)pyrimidin-2-yl]-3,4-dihydro-1H-isoquinolin-6-amine], the IC50 lay within 10 to 50 nM. Regarding `Cc1nn(C2CCN(C)CC2)cc1Nc1ncc(C(F)(F)F)c(-c2cc(S(C)(=O)=O)cs2)n1` [Example 119, N-[3-methyl-1-(1-methyl-4-piperidyl)pyrazol-4-yl]-4-(4-methylsulfonyl-2-thienyl)-5-(trifluoromethyl)pyrimidin-2-amine], the IC50 is at most 10 nM.

`Cc1nn(C2CN(C)C2)cc1Nc1ncc(C(F)(F)F)c(-c2cc(S(C)(=O)=O)cs2)n1` [Example 120, N-[3-methyl-1-(1-methylazetidin-3-yl)pyrazol-4-yl]-4-(4-methylsulfonyl-2-thienyl)-5-(trifluoromethyl)pyrimidin-2-amine]: the IC50 was in the range of 10 to 50 nM. Turning to `CS(=O)(=O)c1csc(-c2nc(Nc3cc(C4CNC4)ccc3Cl)ncc2C(F)(F)F)c1` [Example 121, N-(5-(azetidin-3-yl)-2-chlorophenyl)-4-(4-(methylsulfonyl)thiophen-2-yl)-5-(trifluoromethyl)pyrimidin-2-amine], the IC50 was 50 to 100 nM.

`CN1CC(c2ccc(Cl)c(Nc3ncc(C(F)(F)F)c(-c4cc(S(C)(=O)=O)cs4)n3)c2)C1` [Example 122, N-(2-chloro-5-(1-methylazetidin-3-yl)phenyl)-4-(4-(methylsulfonyl)thiophen-2-yl)-5-(trifluoromethyl)pyrimidin-2-amine]: the IC50 was in the range of 100 to 500 nM. Then `Cc1nn(C2CNC2)cc1Nc1ncc(C(F)(F)F)c(-c2cc(S(C)(=O)=O)cs2)n1` [Example 123, N-(1-(azetidin-3-yl)-3-methyl-1H-pyrazol-4-yl)-4-(4-(methylsulfonyl)thiophen-2-yl)-5-(trifluoromethyl)pyrimidin-2-amine], with 10 to 50 nM; and `Cc1nn(C2CN(C)C2)cc1Nc1ncc(C(F)(F)F)c(-c2cc(S(C)(=O)=O)cs2)n1` [Example 124, N-(3-methyl-1-(1-methylazetidin-3-yl)-1H-pyrazol-4-yl)-4-(4-(methylsulfonyl)thiophen-2-yl)-5-(trifluoromethyl)pyrimidin-2-amine], with 100 to 500 nM; and `O=C1NCCS(=O)(=O)c2cc(-c3nc(Nc4cc5c(cc4Cl)CN(CC(F)(F)F)CC5)ncc3C(F)(F)F)sc21` [Example 125, 7-(2-((7-chloro-2-(2,2,2-trifluoroethyl)-1,2,3,4-tetrahydroisoquinolin-6-yl)amino)-5-(trifluoromethyl)pyrimidin-4-yl)-3,4-dihydrothieno[2,3-f][1,4]thiazepin-5(2H)-one 1,1-dioxide], with 100 to 500 nM. As to `O=C1NCCS(=O)(=O)c2cc(-c3nc(Nc4cc5c(cc4Cl)CN(C4CC4)CC5)ncc3C(F)(F)F)sc21` [Example 126, 7-(2-((7-chloro-2-cyclopropyl-1,2,3,4-tetrahydroisoquinolin-6-yl)amino)-5-(trifluoromethyl)pyrimidin-4-yl)-3,4-dihydrothieno[2,3-f][1,4]thiazepin-5(2H)-one 1,1-dioxide], the IC50 is 10 to 50 nM. Consider `CS(=O)(=O)c1csc(-c2nc(Nc3cc4c(cc3Cl)CNCCC4)ncc2C(F)(F)F)c1` [Example 127, 8-chloro-N-(4-(4-(methylsulfonyl)thiophen-2-yl)-5-(trifluoromethyl)pyrimidin-2-yl)-2,3,4,5-tetrahydro-1H-benzo[c]azepin-7-amine], for which the IC50 was at most 10 nM. The figure for `CS(=O)(=O)c1csc(-c2nc(Nc3cn(C4CCNCC4)nc3C3CC3)ncc2C(F)(F)F)c1` [Example 128, N-(3-Cyclopropyl-1-(piperidin-4-yl)-1H-pyrazol-4-yl)-4-(4-(methylsulfonyl)thiophen-2-yl)-5-(trifluoromethyl)pyrimidin-2-amine] is at most 10 nM.

Consider `CN1CCC(n2cc(Nc3ncc(C(F)(F)F)c(-c4cc(S(C)(=O)=O)cs4)n3)c(C3CC3)n2)CC1` [Example 129, N-(3-cyclopropyl-1-(1-methylpiperidin-4-yl)-1H-pyrazol-4-yl)-4-(4-(methylsulfonyl)thiophen-2-yl)-5-(trifluoromethyl)pyrimidin-2-amine], for which the IC50 was at most 10 nM. The figure for `CS(=O)(=O)c1csc(-c2nc(Nc3cc4c(cc3C3CC3)CNC4)ncc2C(F)(F)F)c1` [Example 131, 6-cyclopropyl-N-(4-(4-(methylsulfonyl)thiophen-2-yl)-5-(trifluoromethyl)pyrimidin-2-yl)isoindolin-5-amine] is at most 10 nM; for `CS(=O)(=O)c1csc(-c2nc(Nc3cc4c(cc3C3CC3)CNCC4)ncc2C(F)(F)F)c1` [Example 132, 7-cyclopropyl-N-(4-(4-(methylsulfonyl)thiophen-2-yl)-5-(trifluoromethyl)pyrimidin-2-yl)-1,2,3,4-tetrahydroisoquinolin-6-amine] it is at most 10 nM. Then `CN1CCCc2cc(Nc3ncc(C(F)(F)F)c(-c4cc(S(C)(=O)=O)cs4)n3)c(Cl)cc2C1` [Example 133, 8-chloro-2-methyl-N-(4-(4-(methylsulfonyl)thiophen-2-yl)-5-(trifluoromethyl)pyrimidin-2-yl)-2,3,4,5-tetrahydro-1H-benzo[c]azepin-7-amine], with at most 10 nM; and `CCN1CCS(=O)(=O)c2cc(-c3nc(Nc4cc5c(cc4Cl)CNCC5)ncc3C(F)(F)F)sc2C1=O` [Example 135, 7-(2-((7-chloro-1,2,3,4-tetrahydroisoquinolin-6-yl)amino)-5-(trifluoromethyl)pyrimidin-4-yl)-4-ethyl-3,4-dihydrothieno[2,3-f][1,4]thiazepin-5(2H)-one 1,1-dioxide], with at most 10 nM. The figure for `O=C1NCCOc2sc(-c3nc(Nc4cc5c(cc4Cl)CN(C(=O)C(F)(F)F)CC5)ncc3C(F)(F)F)cc21` [compound 70] is 10 to 50 nM; for `CS(=O)(=O)c1cc(-c2nc(Nc3cc4c(cc3Cl)CN(C(=O)C(F)(F)F)CC4)ncc2C(F)(F)F)sc1C1=CCOCC1` [compound 74] it is above 500 nM.
